Data reported in ChEMBL document CHEMBL5352381, “Design and development of a novel series of oral bivalent BET inhibitors with potent anticancer activities” (Eur J Med Chem, 2022).
The source made the active and inactive calls. No cut-off for these calls is given here.

What was measured:
[1] = Metabolic stability in dog liver microsomes assessed as clearance; format: ADME, Canis lupus familiaris, Microsome; details: read-out: CLH
[2] = Metabolic stability in human liver microsomes assessed as clearance; format: ADME, Microsome; details: read-out: CLH
[3] = Metabolic stability in dog liver microsomes assessed as half life; format: ADME, Canis lupus familiaris, Microsome
[4] = Metabolic stability in mouse liver microsomes assessed as half life; format: ADME, Microsome
[5] = Metabolic stability in mouse liver microsomes assessed as clearance; format: ADME, Microsome; details: read-out: CLH
[6] = Metabolic stability in human liver microsomes assessed as half life; format: ADME, Microsome
[7] = tested on: Ty-82; test: Induction of apoptosis in human Ty-82 cells assessed as reduction of IDO1 mRNA level at 0.1 to 10 nM for 24 hrs by […]; format: functional, cell-based; details: dose 0.1-10 nM
[8] = tested on: CAPAN-1; test: Induction of apoptosis in human CAPAN-1 cells for 48 hrs by annexin V-FITC based flow cytometric analysis; format: functional, cell-based; details: dose 0.1-10 nM
[9] = tested on: Ty-82; test: Antitumor activity against human Ty-82 cells xenografted in BALB/c nude mouse assessed tumor growth inhibition treated at 0.5 mg/kg, po qd for 21 days relative to control; format: functional; details: TY82, 504 h, time 21 day, read-out: TGI
[10] = Toxicity in BALB/c mouse xenografted with human Ty-82 assessed as death treated at 0.25 to 0.5 mg/kg, po qd for 21 days; format: organism-based; details: in vivo, 504 h, dose 0.25-0.5 mg/kg, time 21 day
[11] = tested on: CAPAN-1; test: Induction of apoptosis in human CAPAN-1 cells assessed as increased cleaved PARP at 0.1 to 10 nM for 48 hrs […]; format: functional, cell-based; details: dose 0.1-10 nM
[12] = tested on: MV4-11; test: Antitumor activity against human MV4-11 cells xenografted in BALB/c mouse assessed as growth inhibition at 0.6 mg/kg, po qd 21 days relative to control; format: functional; details: MV4-11, 504 h, time 21 day, read-out: GI
[13] = tested on: Ty-82; test: Induction of apoptosis in human Ty-82 cells assessed as increase in caspase 9 at 0.1 to 10 nM for 48 hrs […]; format: functional, cell-based; details: dose 0.1-10 nM
[14] = tested on: Ty-82; test: Induction of apoptosis in human Ty-82 cells for 48 hrs by annexin V-FITC based flow cytometric analysis; format: functional, cell-based; details: dose 0.1-10 nM
[15] = Toxicity in BALB/c mouse xenografted with human Ty-82 assessed as body weight loss treated at 0.25 to 0.5 mg/kg, po qd for 21 days; format: organism-based; details: in vivo, 504 h, dose 0.25-0.5 mg/kg, time 21 day
[16] = tested on: Ty-82; test: Induction of apoptosis in human Ty-82 cells assessed as increase in cleaved PARP at 0.1 to 10 nM for 48 hrs […]; format: functional, cell-based; details: dose 0.1-10 nM
[17] = tested on: CAPAN-1; test: Induction of apoptosis in human CAPAN-1 cells assessed as increase in caspase 9 at 0.1 to 10 nM for 48 hrs […]; format: functional, cell-based; details: dose 0.1-10 nM
[18] = tested on: CAPAN-1; test: Induction of apoptosis in human CAPAN-1 cells assessed as increase in caspase 7 at 0.1 to 10 nM for 48 hrs […]; format: functional, cell-based; details: dose 0.1-10 nM
[19] = tested on: Ty-82; test: Induction of apoptosis in human Ty-82 cells assessed as increase in caspase 3 at 0.1 to 10 nM for 48 hrs […]; format: functional, cell-based; details: dose 0.1-10 nM
[20] = tested on: Ty-82; test: Induction of apoptosis in human Ty-82 cells assessed as reduction of c-Myc mRNA level at 0.1 to 10 nM for 24 hrs by […]; format: functional, cell-based; details: dose 0.1-10 nM
[21] = tested on: CAPAN-1; test: Induction of apoptosis in human CAPAN-1 cells assessed as increase in caspase 3 at 0.1 to 10 nM for 48 hrs […]; format: functional, cell-based; details: dose 0.1-10 nM
[22] = tested on: Ty-82; test: Induction of apoptosis in human Ty-82 cells assessed as increase in caspase 7 at 0.1 to 10 nM for 48 hrs […]; format: functional, cell-based; details: dose 0.1-10 nM
[23] = tested on: MM1.S; test: Antitumor activity against human MM1.S cells xenografted in BALB/c nude mouse assessed growth inhibition treated at 1.5 mg/kg, po qd for 10 days adjusted to qod from day 11 to 21 due to body weight loss relative to control; format: functional; details: 504 h, time 21 day, read-out: GI
[24] = Observed AUC infinity in CD-1 mouse at 10 mg/kg, po; format: ADME, organism-based; parameters: dose 10 mg/kg, route po; details: in vivo
[25] = Toxicity in BALB/c mouse xenografted with human MM1.S assessed body weight loss treated at 1.5 mg/kg, po qd for 10 days; format: organism-based; details: in vivo, 240 h, time 10 day
[26] = Cmax in CD-1 mouse at 10 mg/kg, po; format: ADME, organism-based; parameters: dose 10 mg/kg, route po; details: in vivo
[27] = Tmax in CD-1 mouse at 10 mg/kg, po; format: ADME, organism-based; details: in vivo
[28] = Half life in CD-1 mouse at 10 mg/kg, po; format: ADME, organism-based; details: in vivo
[29] = tested on: MM1.S; test: Antitumor activity against human MM1.S cells xenografted in BALB/c nude mouse assessed growth inhibition treated at 0.5 mg/kg, po qd for 21 days relative to control; format: functional; details: 504 h, time 21 day, read-out: GI
[30] = Observed MRT infinity in CD-1 mouse at 10 mg/kg, po; format: ADME, organism-based; details: in vivo
[31] = AUClast in CD-1 mouse at 10 mg/kg, po; format: ADME, organism-based; parameters: dose 10 mg/kg, route po; details: in vivo
[32] = tested on: Ty-82; test: Antiproliferative activity against human Ty-82 cells incubated for 72 hrs by sulforhodamine B based cell counting kit-8 assay; format: functional; details: TY82, 72 h
[33] = tested on: MM1.S; test: Antiproliferative activity against human MM1.S cells incubated for 72 hrs by sulforhodamine B based cell counting kit-8 assay; format: functional
[34] = tested on: MM1.S; test: Antitumor activity against human MM1.S cells xenografted in BALB/c nude mouse assessed growth inhibition treated at 3 mg/kg, po qd for 10 days followed by dose adjustment to 1.5 mg/kg from day 11 to 21 due to body weight loss relative to control; format: functional; details: dose 1.5-3 mg/kg, time 21 day, at 1.5 to 3 mg/kg
[35] = Toxicity in BALB/c mouse xenografted with human MM1.S assessed body weight loss treated at 3 mg/kg, po qd for 10 days; format: organism-based; details: in vivo, 240 h, time 10 day
[36] = target: Bromodomain-containing protein 4 (Homo sapiens, UniProt O60885); test: Inhibition of full length BRD4 (unknown origin) transfected in HEK293 cells incubated for 20 hrs measured by NanoBRET BRD4/Histone H3.3 interaction assay kit; format: cell-based

SMILES | AUC(0-inf) [24] [ng·h/mL] | Cmax [26] [ng/mL] | Tmax [27] [h] | half-life [28] [h] | MRT [30] [h] | AUC(0-t) [31] [ng·h/mL] | IC50 [32] [nM] | IC50 [33] [nM] | other results
Cc1ccc(-n2nc(C(=O)N3C[C@H](C)N(C(=O)c4nc(-c5ccc6c(c5)N(C)[C@H](C)C(=O)N6C)n(-c5ccc(C)cc5)n4)C[C@H]3C)nc2-c2ccc3c(c2)N(C)[C@H](C)C(=O)N3C)cc1 |  |  |  |  |  |  |  |  | microsomal CLint [1]: 7.6 µL/min/mg; microsomal CLint [2]: 6.4 µL/min/mg; half-life [3]: 3.02 h; half-life [4]: 1.84 h; microsomal CLint [5]: 12.6 µL/min/mg; half-life [6]: 3.62 h
CCS(=O)(=O)Nc1ccc(Oc2ccc(F)cc2F)c(-c2cn(C)c(=O)c3[nH]ccc23)c1 [MIVEBRESIB] |  |  |  |  |  |  |  |  | Activity [7]: Active; Activity [8]: Dose-Dependent Effect; inhibition in vivo at 0.5 mg/kg [9]: 67.6%; Activity [10]: Non-Toxic; Activity [11]: Active; inhibition in vivo at 0.6 mg/kg [12]: 66.9%; Activity [13]: Active; Activity [14]: Dose-Dependent Effect; Activity [15]: Toxic; Activity [16]: Active; Activity [17]: Active; Activity [18]: Active; Activity [19]: Active; Activity [20]: Active; Activity [21]: Active; Activity [22]: Active
Cc1ccc(-n2nc(C(=O)N3C[C@H](C)N(C(=O)c4nc(-c5ccc6c(c5)N(C5CCCC5)[C@H](C)C(=O)N6C)n(-c5ccc(C)cc5)n4)C[C@H]3C)nc2-c2ccc3c(c2)N(C2CCCC2)[C@H](C)C(=O)N3C)cc1 | 4620 | 1340 | 2.33 | 0.19 | 3.82 | 4570 |  |  | inhibition in vivo at 1.5 mg/kg [23]: 91.5%; Activity [25]: Toxic; inhibition in vivo at 0.5 mg/kg [29]: 66.5%
Cc1ccc(-n2nc(C(=O)N3CC4(C3)CN(C(=O)c3nc(-c5ccc6c(c5)N(C5CCCC5)[C@H](C)C(=O)N6C)n(-c5ccc(C)cc5)n3)C4)nc2-c2ccc3c(c2)N(C2CCCC2)[C@H](C)C(=O)N3C)cc1 |  |  |  |  |  |  | 76 | 12.6 | 
Cc1ccc(-n2nc(C(=O)N3CCCN(C(=O)c4nc(-c5ccc6c(c5)N(C5CCCC5)[C@H](C)C(=O)N6C)n(-c5ccc(C)cc5)n4)CC3)nc2-c2ccc3c(c2)N(C2CCCC2)[C@H](C)C(=O)N3C)cc1 | 371 | 286 | 0.5 | 0.15 | 2.57 | 368 |  |  | 
Cc1ccc(-n2nc(C(=O)N3C[C@H](C)N(C(=O)c4nc(-c5ccc6c(c5)N(Cc5ccccc5)[C@H](C)C(=O)N6C)n(-c5ccc(C)cc5)n4)C[C@H]3C)nc2-c2ccc3c(c2)N(Cc2ccccc2)[C@H](C)C(=O)N3C)cc1 |  |  |  |  |  |  | 1.12 | 1.77 | 
Cc1ccc(-n2nc(C(=O)N3CCN(C(=O)c4nc(-c5ccc6c(c5)N(C5CCCC5)[C@H](C)C(=O)N6C)n(-c5ccc(C)cc5)n4)[C@H](C)C3)nc2-c2ccc3c(c2)N(C2CCCC2)[C@H](C)C(=O)N3C)cc1 | 4170 | 823 | 2 | 2.82 | 4.85 | 4150 |  |  | growth inhibition (GI) [34]: 78.6%; Activity [35]: Toxic
Cc1ccc(-n2nc(C(=O)NCCNC(=O)c3nc(-c4ccc5c(c4)N(C4CCCC4)[C@H](C)C(=O)N5C)n(-c4ccc(C)cc4)n3)nc2-c2ccc3c(c2)N(C2CCCC2)[C@H](C)C(=O)N3C)cc1 |  | 33.7 | 2.76 |  |  |  |  |  | 
Cc1ccc(-n2nc(C(=O)N3CCN(C(=O)c4nc(-c5ccc6c(c5)N(C5CCCC5)[C@@H](C)C(=O)N6C)n(-c5ccc(C)cc5)n4)CC3)nc2-c2ccc3c(c2)N(C2CCCC2)[C@H](C)C(=O)N3C)cc1 |  |  |  |  |  |  | 16.7 | 3.12 | IC50 [36]: 66.6 nM
Cc1ccc(-n2nc(C(=O)N[C@@H]3CCCC[C@H]3NC(=O)c3nc(-c4ccc5c(c4)N(C4CCCC4)[C@H](C)C(=O)N5C)n(-c4ccc(C)cc4)n3)nc2-c2ccc3c(c2)N(C2CCCC2)[C@H](C)C(=O)N3C)cc1 | 278 | 33.7 | 2.67 | 0.1 | 11.2 | 205 |  |  | 
Cc1ccc(-n2nc(C(=O)N3CCNCC3)nc2-c2ccc3c(c2)N(C2CCCC2)[C@H](C)C(=O)N3C)cc1 |  |  |  |  |  |  | 24.1 | 47.4 | IC50 [36]: 52.2 nM
